From US20060030616A1, “Anhydride modified cantharidin analogues useful in the treatment of cancer” (priority 1998, published 2006)

Key:
[1] = test system: L1210 cells; test: Cell cycle analysis, flow cytometry of propidium iodide stained cells; type: cell-based, murine
Protocol: (§1) The cells are fixed in 70% ethanol and stored at −20° C. until analysis is performed (1-2 weeks). After fixing, the cells are pelleted and incubated in PBS containing propidium iodide ([…]) and RNase A (200 mg/ml) for at least 30 min at room temperature. The samples (2×10^4 events) are analysed using a Becton Dickson FACScan, fluorescence is collected in fluorescence detector 2 (FL2), filter 575/30 nm band pass. Cell cycle distribution is assessed using Cell Quest software (Becton Dickson).
(§2) The ability of the protein phosphatase inhibitors to abrogate the G1 or G2 checkpoint of the cell cycle may be determined by cell cycle analysis using flow cytometry. Briefly, asynchronous cell cultures are harvested 18 h after 6 Gy irradiation and/or 12 h incubation with the protein phosphatase inhibitor. Depending upon the p53 status of the cell line, radiation treatment alone will induce arrest in either G1 and/or G2 phase of the cell cycle.
Data shown in Table 2 and FIG. 4 show the cell cycle response of L1210, HL60, HT29 and HCT116 cells to cantharidin and the new cantharidin analogues MK-2 and MK-4 after 12 h exposure. In summary, cantharidin and MK-2 produced a similar response and induced G2 arrest in all four cell lines tested. […] HL60 and HCT116 cells. […] The magnitude of the cell cycle arrest induced by these drugs directly correlated with their cytotoxicity in the respective cell lines. […] The cytotoxicity of the […]

[2] = test system: L1210 cells; test: Checkpoint abrogation after 6 Gy radiation, flow cytometry; type: cell-based, murine; conditions: 12 h after drug
Protocol: as §1, §2
(§3) If the protein phosphatase inhibitor abrogates the G2 checkpoint then the cells will not arrest in the G2 phase of the cell cycle and the cells will continue through the cell cycle and accumulate in the G1 phase of the cell cycle only. Similarily if the protein phosphatase inhibitors abrogates the G1 checkpoint then the cells will not arrest in the G1 phase of the cell cycle and accumulate in the G2 phase of the cell cycle only. Cell cycle analysis using propidium iodide labelling of DNA has been used extensively in our laboratory to assess the effect of specific anticancer agents that induce S-phase cell cycle arrest and apoptotic cell death (Sakoff, Ackland and Stewart, 1998). Experiments were performed on a Becton Dickinson FACScan and using Cell Quest software.
(§4) The cells were treated with 6 Gy of radiation and then treated with cantharidin 6 h later. The ability to abrogate cell cycle arrest was assessed is 12 h after the addition of the drugs.

[3] = test system: HL60 cells; test: as above; type: cell-based, human; conditions: 12 h after drug
Protocol: as §1, §2, §3, §4

[4] = test system: HT29 cells; test: as above; type: cell-based, human; conditions: 12 h after drug
Protocol: as §1, §2, §3, §4

[5] = test system: HCT116 cells; test: as above; type: cell-based, human; conditions: 12 h after drug
Protocol: as §1, §2, §3, §4

## O=C1OC(O)C2C3CCC(O3)C12 (stereo not drawn) [MK-4]
[1]; L1210, 50 μM, 12 h
  Cell Cycle Distribution, G1: 42.0 percentage of total
  Cell Cycle Distribution, G2 + M: 32.0 percentage of total
  Cell Cycle Distribution, S: 26.9 percentage of total
  Cell Cycle Distribution, sub G1: 0.5 percentage of total
[1]; L1210, 100 μM, 12 h
  Cell Cycle Distribution, G1: 43.2 percentage of total
  Cell Cycle Distribution, G2 + M: 32.5 percentage of total
  Cell Cycle Distribution, S: 25.4 percentage of total
  Cell Cycle Distribution, sub G1: 0.4 percentage of total
[1]; L1210, 250 μM, 12 h
  Cell Cycle Distribution, G1: 45.7 percentage of total
  Cell Cycle Distribution, G2 + M: 30.5 percentage of total
  Cell Cycle Distribution, S: 24.6 percentage of total
  Cell Cycle Distribution, sub G1: 0.5 percentage of total
[1]; L1210, 500 μM, 12 h
  Cell Cycle Distribution, G1: 47.5 percentage of total
  Cell Cycle Distribution, G2 + M: 33.9 percentage of total
  Cell Cycle Distribution, S: 18.6 percentage of total
  Cell Cycle Distribution, sub G1: 1.1 percentage of total
  Cell cycle remark: Slight Δ
[1]; L1210, 12 h exposure
  Cell cycle response: G2 arrest
[2]; L1210, 50 μM, 18 h after 6Gy
  Cell Cycle Distribution, G1: 21.2 percentage of total
  Cell Cycle Distribution, G2 + M: 50.3 percentage of total
  Cell Cycle Distribution, S: 28.5 percentage of total
  Cell Cycle Distribution, sub G1: 1.8 percentage of total
[2]; L1210, 100 μM, 18 h after 6Gy
  Cell Cycle Distribution, G1: 22.0 percentage of total
  Cell Cycle Distribution, G2 + M: 49.7 percentage of total
  Cell Cycle Distribution, S: 27.4 percentage of total
  Cell Cycle Distribution, sub G1: 2.4 percentage of total
[2]; L1210, 250 μM, 18 h after 6Gy
  Cell Cycle Distribution, G1: 21.2 percentage of total
  Cell Cycle Distribution, G2 + M: 52.7 percentage of total
  Cell Cycle Distribution, S: 24.6 percentage of total
  Cell Cycle Distribution, sub G1: 3.1 percentage of total
[2]; L1210, 500 μM, 18 h after 6Gy
  Cell Cycle Distribution, G1: 18.2 percentage of total
  Cell Cycle Distribution, G2 + M: 61.8 percentage of total
  Cell Cycle Distribution, S: 16.0 percentage of total
  Cell Cycle Distribution, sub G1: 5.0 percentage of total
  Checkpoint remark: G1 abrogation
[2]; L1210, 6 Gy
  Checkpoint abrogation: abrogated G1 arrest
[3]; HL60, 50 μM, 18 h after 6Gy
  Cell Cycle Distribution, G1: 6.2 percentage of total
  Cell Cycle Distribution, G2 + M: 82.3 percentage of total
  Cell Cycle Distribution, S: 2.8 percentage of total
  Cell Cycle Distribution, sub G: 8.9 percentage of total
[3]; HL60, 100 μM, 18 h after 6Gy
  Cell Cycle Distribution, G1: 6.2 percentage of total
  Cell Cycle Distribution, G2 + M: 80.8 percentage of total
  Cell Cycle Distribution, S: 3.4 percentage of total
  Cell Cycle Distribution, sub G: 9.8 percentage of total
[3]; HL60, 250 μM, 18 h after 6Gy
  Cell Cycle Distribution, G1: 5.8 percentage of total
  Cell Cycle Distribution, G2 + M: 82.2 percentage of total
  Cell Cycle Distribution, S: 3.1 percentage of total
  Cell Cycle Distribution, sub G: 9.3 percentage of total
[3]; HL60, 500 μM, 18 h after 6Gy
  Cell Cycle Distribution, G1: 5.2 percentage of total
  Cell Cycle Distribution, G2 + M: 78.2 percentage of total
  Cell Cycle Distribution, S: 5.4 percentage of total
  Cell Cycle Distribution, sub G: 11.6 percentage of total
  Checkpoint remark: Cell Death
[3]; HL60, 6 Gy
  Checkpoint abrogation: abrogated G1 arrest
[4]; HT29, 50 μM, 18 h after 6Gy
  Cell Cycle Distribution, G1: 28.9 percentage of total
  Cell Cycle Distribution, G2 + M: 48.4 percentage of total
  Cell Cycle Distribution, S: 16.4 percentage of total
  Cell Cycle Distribution, sub G: 6.8 percentage of total
[4]; HT29, 100 μM, 18 h after 6Gy
  Cell Cycle Distribution, G1: 33.3 percentage of total
  Cell Cycle Distribution, G2 + M: 43.3 percentage of total
  Cell Cycle Distribution, S: 17.2 percentage of total
  Cell Cycle Distribution, sub G: 6.3 percentage of total
[4]; HT29, 250 μM, 18 h after 6Gy
  Cell Cycle Distribution, G1: 35.2 percentage of total
  Cell Cycle Distribution, G2 + M: 36.5 percentage of total
  Cell Cycle Distribution, S: 17.3 percentage of total
  Cell Cycle Distribution, sub G: 10.3 percentage of total
[4]; HT29, 500 μM, 18 h after 6Gy
  Cell Cycle Distribution, G1: 39.4 percentage of total
  Cell Cycle Distribution, G2 + M: 37.7 percentage of total
  Cell Cycle Distribution, S: 19.2 percentage of total
  Cell Cycle Distribution, sub G: 3.9 percentage of total
  Checkpoint remark: G2 abrogation
[4]; HT29, 6 Gy
  Checkpoint abrogation: abrogation of the G2 checkpoint
[5]; HCT116, 50 μM, 18 h after 6Gy
  Cell Cycle Distribution, G1: 26.7 percentage of total
  Cell Cycle Distribution, G2 + M: 61.3 percentage of total
  Cell Cycle Distribution, S: 5.8 percentage of total
  Cell Cycle Distribution, sub G: 6.3 percentage of total
[5]; HCT116, 100 μM, 18 h after 6Gy
  Cell Cycle Distribution, G1: 18.4 percentage of total
  Cell Cycle Distribution, G2 + M: 69.3 percentage of total
  Cell Cycle Distribution, S: 9.7 percentage of total
  Cell Cycle Distribution, sub G: 3.3 percentage of total
[5]; HCT116, 250 μM, 18 h after 6Gy
  Cell Cycle Distribution, G1: 16.3 percentage of total
  Cell Cycle Distribution, G2 + M: 67.8 percentage of total
  Cell Cycle Distribution, S: 8.2 percentage of total
  Cell Cycle Distribution, sub G: 8.2 percentage of total
[5]; HCT116, 500 μM, 18 h after 6Gy
  Cell Cycle Distribution, G1: 13.1 percentage of total
  Cell Cycle Distribution, G2 + M: 61.9 percentage of total
  Cell Cycle Distribution, S: 10.6 percentage of total
  Cell Cycle Distribution, sub G: 14.9 percentage of total
  Checkpoint remark: G1 abrogation
[5]; HCT116, 6 Gy
  Checkpoint abrogation: abrogated G1 arrest
